In PubChem BioAssay AID1985 (Southern Research Specialized Biocontainment Screening …, 2009):
pIC50: −log10 of the molar value. Several values for one entry are separate records, joined by “and”; a condition that tells them apart may be missing. Equal entries are not always repeated.

tested on: S. Typhi PhoP-promoter GFP reporter, fluorescence, 4 h; test: modified counter assay using GFP fluorescence, PhoP regulon inhibitor project, dose response (AID 1985)

Row | Compound | pIC50
1 | CN(C)CCCN(C(=O)CCc1ccccc1)c1nc2ccc(Br)cc2s1 | 3.96
2 | O=C(N/N=C/c1ccccn1)c1cccs1 | 4.37
3 | O=C(Nc1nc(-c2ccccn2)cs1)c1ccc(Cl)s1 | 4.67
4 | C/C(O)=C\c1nc2ccccc2oc1=O | 4.83
5 | Cc1c(Cl)cccc1Nc1nc(NCCO)c2ccccc2n1 | 4.42
6 | O=C(O)c1cn(C2CC2)c2cc(N3CCN(S(=O)(=O)c4ccc5c(c4)OCCO5)CC3)c(F)cc2c1=O | 4.55
7 | CNC[C@H](CC1CCCCC1)NC[C@H](Cc1ccccc1)NCCC12CC3CC(CC(C3)C1)C2 | 4.83
8 | Cc1ccc2nc(N(CCCN(C)C)C(=O)c3ccc4c(c3)CCCC4)sc2c1 | 4.11
9 | CC(=O)Oc1ccccc1C(=O)Nc1ncc([N+](=O)[O-])s1 | 3.83
10 | COc1ccc(C2NCCc3c2[nH]c2ccccc32)cc1COc1ccc(F)cc1 (stereo not drawn) | 4.11
11 | CC(=O)NNC(=S)NC(=O)c1ccccc1 | 4.64
12 | COc1ccc(/C=N/Nc2cc(C)nc3c(C)cccc23)cc1 | 4.43
13 | Cc1cc(O)c2c(c1)C(=O)C13C(=C2O)C(=O)[C@H]2[C@@H](O)[C@@H]1[C@H]1[C@H](O)[C@@H]3C(=O)C3=C(O)c4c(O)cc(C)cc4C(=O)C312 (stereo partly drawn) | 4.72
14 | C#CCOCCOCCOCCNc1nc(N2CCN(C(=O)CCCCCCCCCCNC(=O)[C@H](CCCCN)n3cc(C)nn3)CC2)nc(N2CCN(C(=O)CCCCCCCCCCNC(=O)[C@@H]([C@H](C)CC)n3cc(CCCCCN)nn3)CC2)n1 | 4.10
15 | O=C(C[n+]1cccc(CNC(=O)c2ccc(OC(F)F)cc2)c1)Nc1ccc(SC(F)F)cc1 | 4.38
16 | O=C(N/N=C\C=C\c1ccc([N+](=O)[O-])o1)c1cccs1 | 4.56
17 | Cc1cccc2c1Sc1ccc(Cl)cc1CC2N1CCNCC1 (stereo not drawn) | 4.49
18 | O=c1[nH]c2ccccc2n2c(=S)[nH]nc12 | 4.16
19 | CCn1cc(C(=O)NCc2ccc3c(c2)OCO3)c(=O)c2cc(F)c(N3CCN(C(=O)c4ccco4)CC3)cc21 | 3.97
20 | COc1cccc(C=NCC(C)N=Cc2cccc(OC)c2O)c1O (stereo not drawn) | 4.13
21 | COc1ccc(Nc2ccnc3ccccc23)cc1 | 4.07
22 | Oc1c(Br)cc(Br)cc1C=Nc1ccc2[nH]ncc2c1 | 4.31
23 | C[C@H]1c2cccc(O)c2C(O)=C2C(=O)[C@]3(O)C(O)=C(C(N)=O)C(=O)[C@@H](N(C)C)C3[C@@H](O)C21 (stereo partly drawn) | 5.93

Row | Compound | pIC50
24 | OCCN1CCN(C2CCC(c3ccc(F)cc3)c3ccc(F)cc32)CC1 (stereo not drawn) | 4.17
25 | O=C(/C=C/c1cccs1)NC(=S)NNC(=O)c1ccccc1O | 4.57
26 | Oc1ccc(CN2CCN(Cc3ccccc3)CC2)c2cccnc12 | 4.40
27 | OCCNCc1cc(Br)ccc1OCc1ccc(Cl)cc1 | 3.92
28 | O=C1C2=C(Nc3ccccc3SC2c2ccco2)c2ccccc21 (stereo not drawn) | 3.92
29 | O=[N+]([O-])c1ccc(/C=[N+](\[O-])CCO)o1 | 4.47
30 | O=C(CC(=O)c1c(F)cccc1Cl)c1ccccc1O | 4.38
31 | Cc1ccc(C(=O)N/C(=C\c2ccc(-c3ccc(Cl)cc3)o2)C(=O)NCCCN(C)C)cc1 | 4.07
32 | COc1ccc(C(C[N+](=O)[O-])C2(c3ccc(OC)c(OC)c3)C(=O)c3ccccc3C2=O)cc1 (stereo not drawn) | 5.09
33 | O=c1cc(-c2ccc(O)cc2)oc2c(O)c(O)c(O)c(O)c12 | 4.40
34 | COc1ccc(N2C(=O)CC(N3CC=C(c4ccccc4)CC3)C2=O)cc1 (stereo not drawn) | 4.08
35 | O=S(=O)(Nc1ncccn1)c1ccc(NC(=S)Nc2ccc(Cl)cc2)cc1 | 4.01
36 | O=C(CSc1nc2ccccc2s1)N/N=C/c1cc([N+](=O)[O-])ccc1O | 4.36
37 | O=C(Oc1c(Br)cc([N+](=O)[O-])cc1Br)c1cccnc1 | 4.33
38 | CCc1nccc2c1[nH]c1ccccc12 | 3.91
39 | O=C(N/N=C/c1c(O)ccc2ccccc12)c1ccc(CO)nc1 | 4.10
40 | CN(C)CCCNc1cc(C(C)(C)C)nc2c(-c3ccc(Cl)cc3)cnn12 | 4.46
41 | O=CN/N=C/c1c(O)ccc2ccccc12 | 4.31
42 | NC(=NCCCCCCN=C(N)/N=C(\N)Nc1ccc(Cl)cc1)/N=C(\N)Nc1ccc(Cl)cc1 | 5.41 and 5.49 and 5.27
43 | C=CCNc1ncnc2c1[nH]c1ccc(C)cc12 | 4.25
44 | O=C(N/N=C/c1ccc(O)c(O)c1)C1c2ccccc2Oc2ccccc21 | 3.97
45 | CCc1ccc(NC(=O)Nc2ccncc2)cc1 | 4.29
46 | COc1cccc(NC2=NC3(CCCCC3)N=C(N)N2)c1 | 3.83

Row | Compound | pIC50
47 | CCn1cc(C(=O)O)c(=O)c2cnc(N3CCNCC3)nc21 | 3.95
48 | O=C(NC1CCCCC1)c1ccc([N+](=O)[O-])o1 | 4.40
49 | N/C(=N\OS(=O)(=O)c1ccc(Cl)cc1)c1cccnc1 | 4.04
50 | O=C(O)c1sccc1Oc1ccc(F)cc1[N+](=O)[O-] | 4.90
51 | O=C(Nc1nc(-c2ccccn2)cs1)c1ccc(Br)s1 | 4.70
52 | C#CCOCCOCCOCCNc1nc(N2CCN(C(=O)[C@H](Cc3ccc(O)cc3)n3cc([C@@H](N)CC(C)C)nn3)CC2)nc(N2CCN(C(=O)[C@H](Cc3cc4ccccc4[nH]3)n3cc([C@@H](N)CC(C)C)nn3)CC2)n1 | 4.07
53 | Clc1ccc(CN2CCc3c([nH]c4ccccc34)C2)cc1Cl | 4.31
54 | Oc1cccc(Nc2nc(NCC3CCCO3)c3ccccc3n2)c1 (stereo not drawn) | 4.11
55 | OC(c1cc(C(F)(F)F)nc2c(C(F)(F)F)cccc12)C1CCCCN1 (stereo not drawn) | 4.43
56 | CSc1cccc(NC(=O)/C=C/c2ccccc2)c1 | 4.07
57 | O=C(N/N=C/c1ccccn1)c1ccc(Br)o1 | 4.30
58 | Cc1cc(NC(=O)c2ccccc2)sc1C | 4.07
59 | CSc1nc2cc(Oc3cccc(Cl)c3Cl)c(Cl)cc2[nH]1 | 4.24
60 | CC[C@H]1OC(=O)C[C@@H](O)[C@H](C)[C@@H](O[C@@H]2O[C@H](C)C[C@H](N(C)C)[C@H]2O)[C@@H](CC=O)C[C@@H](C)C(=O)C=C[C@]2(C)O[C@H]2[C@@H]1C | 5.03
61 | CN1CCN(C2Cc3ccc(Cl)cc3Sc3ccc(F)cc32)CC1 (stereo not drawn) | 4.40
62 | CCOc1ccc(/C=N/NC(=O)c2[nH]ncc2Br)c(O)c1 | 4.18
63 | CC(Nc1nc(N2CCCC2)nc2ccccc12)c1ccccc1 (stereo not drawn) | 3.83
64 | CC12CN3CC(C)(CN(C1)C3c1ccc(Br)cc1O)C2 (stereo not drawn) | 3.88
65 | COc1ccc(CNCC(O)COc2ccc(C(C)(C)c3ccccc3)cc2)cc1 (stereo not drawn) | 4.43
66 | c1ccc(Nc2ccnc(Nc3ccccc3)n2)cc1 | 4.17
67 | COc1ccc(OCc2n(CC(=O)OC3CC(C)CCC3C(C)C)c3ccccc3[n+]2C)cc1 (stereo not drawn) | 4.09
68 | O=C(NNC(=S)NC(=O)c1ccccc1)c1ccc(O)cc1 | 4.15
69 | NC(N)=N/N=C/c1ccc(OCc2ccccc2Cl)cc1 | 4.48

Row | Compound | pIC50
70 | O=c1[nH]c(-c2ccccn2)nc(C(F)(F)F)c1Br | 4.18
71 | O=C(N/N=C/c1c[nH]c2ccccc12)c1ccc(Cl)cc1 | 3.91
72 | COc1cc2c(cc1O)[C@H](Cc1ccc(Oc3cc(C[C@@H]4NCCc5cc(OC)c(O)cc54)ccc3O)cc1)NCC2 | 4.24
73 | Nc1nnnn1/N=C/c1cc([N+](=O)[O-])ccc1O | 4.04
74 | CC[N+](C)(CC)CCC[n+]1c(-c2ccccc2)c2cc(N)ccc2c2ccc(N)cc21 | 4.27
75 | COc1ccc(C(=O)NC(=S)NNC(=O)c2cccc(C)c2)cc1 | 4.33
76 | Cc1ccc(Nc2cc(C)nn2-c2nc(C)cc(=O)[nH]2)cc1 | 4.99
77 | O=C(c1cccs1)c1no[n+]([O-])c1C(=O)c1cccs1 | 4.85
78 | OCCNc1nc(Nc2ccccc2)nc2ccccc12 | 4.45
79 | Cc1nonc1C(=O)N/N=C/c1ccc([N+](=O)[O-])o1 | 4.61
80 | O=C(Oc1c(Cl)cc(Cl)c2cccnc12)c1cccc([N+](=O)[O-])c1 | 5.29
81 | Cc1nonc1C(=O)N/N=C/c1ccc(O)cc1O | 4.53
82 | CN1C(=O)NC(c2cccc(O)c2)C(C(=O)c2cccs2)C1(O)C(F)(F)F (stereo not drawn) | 4.39
83 | c1ccc2c(NCCc3c[nH]c4ccccc34)c3ccccc3nc2c1 | 4.12
84 | C(=N/Nc1nccs1)/c1cccnc1 | 4.21
85 | Cc1cc(NS(=O)(=O)c2ccc(NC(=S)NC(=O)c3cccnc3)cc2)no1 | 3.90
86 | CCCCCOc1ccc(CSC(=N)N)cc1[N+](=O)[O-] | 4.68
87 | CCOC(=O)N1CCN(C(=O)c2cn(CC)c3cc(N4CCN(C)CC4)c(F)cc3c2=O)CC1 | 5.12
88 | Oc1c(Br)cc(Br)cc1C=NCc1ccccc1 | 4.30
89 | CCNC(=O)Oc1ccc[nH]c1=O | 4.00
90 | COc1cc(CNCCc2c[nH]c3ccccc23)ccc1OCc1ccc(F)cc1 | 4.08
91 | COc1ccccc1Nc1c2ccccc2nc2ccccc12 | 4.09
92 | CCCCn1c(NS(=O)(=O)c2ccccc2)c(S(=O)(=O)c2ccc(C)cc2)c2nc3ccccc3nc21 | 3.94

Row | Compound | pIC50
93 | [O-][n+]1c2ccccc2cc2ccccc21 | 4.06
94 | CCS(=O)(=O)c1ccc2oc(=O)c(/C=C(\O)c3ccc(Cl)cc3)nc2c1 | 4.19
95 | O=C(Nc1ccccc1)Nc1nccs1 | 3.89
96 | Cc1nnc(N/N=C/c2ccccn2)[nH]c1=O | 4.51
97 | N#C/C(=C(/O)c1ccco1)c1nc2ccccc2s1 | 4.26
98 | Cc1occc1C(=O)N/N=C/C=C/c1ccccc1 | 4.38
99 | CN(C)CCCN1c2ccccc2Sc2ccccc21 | 3.99
100 | CC(NCc1ccc(Cl)cc1)C(O)c1ccccc1 (stereo not drawn) | 3.89
101 | OCCN1CCN(C2Cc3cc(Cl)ccc3Sc3ccc(Cl)cc32)CC1 (stereo not drawn) (tested in a mixture with another compound) | 4.13
102 | CCCOc1ccc(C(=O)NNC(=S)NC(=O)CC)cc1 | 4.10
103 | CO[C@@]1(NC(=O)C2SC(=C(C(N)=O)C(=O)O)S2)C(=O)N2C(C(=O)O)=C(CSc3nnnn3C)CS[C@@H]21 (stereo partly drawn) | 4.88
104 | Cc1ccc(CC(=O)Nc2ncc([N+](=O)[O-])s2)cc1 | 4.02
105 | Nc1c2ccccc2nc2ccccc12 | 4.32
106 | COc1cccc(Nc2nc(NCCO)c3ccccc3n2)c1 | 4.07
107 | CCn1cc(C(=O)O)c(=O)c2cc(F)c(N3CCNCC3)cc21 | > 6.64
108 | O=C(Nc1ccncc1)Nc1ccc(Cl)cc1 | 4.39
109 | CCCCCCCNC(=O)C1(CC2CC(c3cccc(Br)c3)=NO2)CCNCC1 (stereo not drawn) | 4.34
110 | O=C(C[n+]1cc(-c2ccc(Cl)c(Cl)c2)n2c1CCC2)N1c2ccccc2Sc2ccccc21 | 4.11
111 | CCN(CC)CCn1c(=N)n(CC(O)COc2cccc(C)c2)c2ccccc21 (stereo not drawn) | 4.07
112 | O=C(Nc1ccccc1)c1ccc2nsnc2c1 | > 6.64
113 | Cc1ccc2nc(NCc3ccccc3)[nH]c2c1 | 4.14
